In US20160058771A1, “ALPHA-2 ADRENOCEPTOR AND SIGMA RECEPTOR LIGAND COMBINATIONS” (LABORATORIOS DEL DR. ESTEVE, S.A., priority 2013, published 2016):
Entries after “also recorded” stand apart in the source; their conditions may differ. Structures can show the parent of a compound that is named as a salt.

How the values were obtained:
male Swiss CD-1 mice [1] = test: Tail-flick test (radiant heat, acute thermal pain); format: in vivo
Method: Tail-flick test is a classical model of acute thermal pain (D'Amour and Smith, 1941) Pain sensitivity is measured in response to a radiant heat beam focused on the mouse tail. Latency to the first pain response is recorded as a measure of thermal pain sensitivity. The withdrawal is a classic nocifensive reflex that removes the body apart from the source of pain.
Male Swiss CD-1 mice weighing between 30 and 35 g (Charles River, Barcelona, Spain) were used for all the experiments. The drugs evaluated were compound 63.HCl and clonidine hydrochloride and guanfacine, as alpha-2 adrenergic agonists. Compound 63.HCl was injected intraperitoneally (i.p.) in a volume of 10 ml/kg in 0.5% hydroxypropyl methyl cellulose (HPMC) and clonidine or guanfacine were administered subcutaneously (s.c.) dissolved in isotonic saline (0.9% NaCl) solution, in a volume of 5 ml/kg. Control animals received the same volume of vehicle.
Antinociception was assessed using the radiant heat tail-flick test as described by Moncada et al., 2003. Briefly, the animals were restrained in a Plexiglas tube and placed on the tail-flick apparatus. The radiant heat source was focused on the proximal portion of the tail at about […] of the tip. Vehicle tail-flick latency (VL) was determined using a stimulus intensity adjusted to elicit a mean reaction time in the range of 2-4 s. Following vehicle or compound administration, test latencies (TL) were obtained at 30 min. A cut off time of 10 s was employed in order to prevent tissue damage. All experiments were performed under blind conditions.
Data were expressed as means±S.E.M of the […] (s.).
(§1) In order to generate dose-response curves, raw data were converted to % maximum possible antinociceptive effect using the following equation:
(§2) % MPE=[(TL−VL)/(Cut off−VL)]·100
where MPE: maximum possible antinociceptive effect; TL: test latencies and VL: vehicle latency. 2.1. Effects of the Compound 63.HCl Alone or Combined with the Alpha-2 Agonist Clonidine

male Swiss CD-1 mice [2] = test: Hot-plate test (50° C., latency to hind paw licking); format: in vivo; conditions: for analgesic effect (latency to hind paw licking): vs control, FIG. 6
From the text: The hot plate is another classical test of acute thermal nociception. This test consists of introducing mice into an open-ended cylindrical space with a floor consisting of a metallic plate that is heated to a constant temperature. Typical behavioural responses in mice are paw-licking and jumping (Le Bars et al., 2001)
Male Swiss CD-1 mice weighing between 30 and 35 g (Charles River, Barcelona, Spain) were used for all the experiments. The drugs evaluated were the Sigma ligand Compound 63.HCl and the alpha-2 adrenergic agonists clonidine, guanfacine, and dexmedetomidine. Compound 63.HCl was injected intraperitoneally (i.p.) in a volume of 10 ml/kg in 0.5% hydroxypropyl methyl cellulose (HPMC), whereas clonidine, guanfacine and dexmedetomidine were administrated subcutaneously (s.c.) in saline, in a volume of 5 ml/kg. Control animals received the same volume of vehicle. The hot plate test was done 30 min after compound's administration. Mice were placed individually on the hot-plate at 50° C. and the reaction time starting from the placement of the mouse on the hot plate to the time of hind paw licking (HPL) was measured with a stopwatch. An independent untreated group of animals from each strain was used to evaluate the basal latencies and five times those values were chosen as the cut-off time to avoid tissue damage.
Data were expressed as means±S.E.M of the paw withdrawal latency (s).
as §1, §2
where MPE: maximum possible antinociceptive effect; TL: test latencies and VL: vehicle latency. 3.1. Effect of the Sigma Ligands Compound 63.HCl Alone or Combined with the Alpha-2 Agonist Clonidine

Cc1cc(OCCN2CCOCC2)nn1-c1ccc2ccccc2c1 [compound 63.HCl, 4-{2-[5-methyl-1-(naphthalen-2-yl)-1H-pyrazol-3-yloxy]ethyl}morpholine hydrochloride]
effect on the dose-response curve of clonidine (male Swiss CD-1 mice [1]; compound 63.HCl 40 mg/kg ip with clonidine 0.125-1 mg/kg sc, displacement to the left of the curve, FIG. 2): potentiates the antinociceptive effect of clonidine
antinociceptive effect (tail withdrawal latency) (male Swiss CD-1 mice [1]; compound 63.HCl alone, 5, 10 and 40 mg/kg ip, 30 min before test, vs vehicle, FIG. 1): failed to produce a statistically significant antinociceptive effect
effect on the dose-response curve of clonidine (male Swiss CD-1 mice [2]; Compound 63.HCl 40 mg/kg ip with clonidine 0.125-1 mg/kg sc, displacement to the left of the curve, FIG. 5): potentiated the antinociceptive effect of clonidine
antinociceptive effect (latency to hind paw licking) (male Swiss CD-1 mice [2]; Compound 63.HCl alone 40 mg/kg ip, 30 min before test, FIG. 4, FIG. 5, hydrochloride): failed to produce a statistically significant antinociceptive effect; also recorded: showed no activity

Cc1cccc([C@H](C)c2cnc[nH]2)c1C [dexmedetomidine]
analgesic effect (latency to hind paw licking) (male Swiss CD-1 mice [2]; dexmedetomidine alone 0.01 mg/kg s.c.): not effective compared to control group

N=C(N)NC(=O)Cc1c(Cl)cccc1Cl [guanfacine]
analgesic effect (tail withdrawal latency) (male Swiss CD-1 mice [1]; guanfacine alone 1.25 mg/kg s.c., vs vehicle, FIG. 3): not effective compared to vehicle
analgesic effect (latency to hind paw licking) (male Swiss CD-1 mice [2]; guanfacine alone 5 mg/kg s.c.): not effective compared to control group

Clc1cccc(Cl)c1N=C1NCCN1 [clonidine]
ED50 (male Swiss CD-1 mice [1]; Mus musculus, clonidine alone, sc, 0.125-1 mg/kg, % MPE dose-response, FIG. 2, read-out: ED50 (50% effective dose of clonidine)): 0.18 mg/kg
ED50 (male Swiss CD-1 mice [2]; Mus musculus, clonidine alone, sc, 0.125-1 mg/kg, FIG. 5, read-out: ED50 (50% effective dose of clonidine)): 0.3 mg/kg
